Source: paper PMC4923908, “In vitro and in vivo study of epigallocatechin-3-gallate-induced apoptosis in aerobic glycolytic hepatocellular carcinoma cells involving inhibition of phosphofructokinase activity” (Scientific Reports, 2016)

T1: Phosphofructokinase (PFK), purified from rabbit skeletal muscle (Oryctolagus cuniculus, UniProt P00511)
T1 construct: gene PFKM
T1 sequence (P00511 2-780): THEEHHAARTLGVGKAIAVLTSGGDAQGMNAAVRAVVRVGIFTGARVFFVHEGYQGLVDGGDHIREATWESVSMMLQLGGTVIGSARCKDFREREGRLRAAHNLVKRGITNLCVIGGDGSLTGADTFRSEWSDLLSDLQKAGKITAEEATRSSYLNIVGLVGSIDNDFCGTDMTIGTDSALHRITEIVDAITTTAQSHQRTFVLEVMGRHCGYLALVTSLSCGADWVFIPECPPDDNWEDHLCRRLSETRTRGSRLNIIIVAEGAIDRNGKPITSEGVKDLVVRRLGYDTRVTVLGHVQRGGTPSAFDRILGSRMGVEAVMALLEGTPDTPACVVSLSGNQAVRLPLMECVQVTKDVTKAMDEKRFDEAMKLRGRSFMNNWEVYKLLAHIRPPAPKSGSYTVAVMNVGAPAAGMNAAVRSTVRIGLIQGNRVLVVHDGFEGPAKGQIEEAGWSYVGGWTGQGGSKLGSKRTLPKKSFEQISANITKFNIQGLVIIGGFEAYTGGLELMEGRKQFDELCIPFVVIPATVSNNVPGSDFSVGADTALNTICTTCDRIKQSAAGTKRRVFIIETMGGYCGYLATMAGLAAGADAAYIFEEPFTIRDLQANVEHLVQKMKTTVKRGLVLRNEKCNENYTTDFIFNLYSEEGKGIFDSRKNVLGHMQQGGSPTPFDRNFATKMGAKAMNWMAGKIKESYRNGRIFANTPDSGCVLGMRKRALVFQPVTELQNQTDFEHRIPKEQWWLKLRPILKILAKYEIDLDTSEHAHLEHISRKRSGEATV


Experiments:
[1] = biological target: T1, Phosphofructokinase (PFK), purified from rabbit skeletal muscle; assay: radiometric assay of purified PFK ([γ-32P]ATP); supported by intrinsic fluorescence center-of-mass shift (tetramer to dimer); assay type: biochemical
[2] = biological target: the molecule itself; assay: intrinsic fluorescence spectra (center of mass); purified PFK incubated 1 h with 0, 25, 50, 100 and 200 uM EGCG; conditions as for the radioassay (50 mM Tris-HCl pH 7.4, 5 mM MgCl2, 5 mM (NH4)2SO4, 1 mM F6P, 1 mM ATP, 1 mg/ml purified PFK); excitation 280 nm, emission 300-400 nm; tetramer to dimers

Row | Molecule | IC50 [1] | stoichiometry N [2]
1 | O=C(O[C@@H]1Cc2c(O)cc(O)cc2O[C@@H]1c1cc(O)c(O)c(O)c1)c1cc(O)c(O)c(O)c1 [EGCG, epigallocatechin-3-gallate] | 124 µM | 
2 | Phosphofructokinase (PFK) purified from rabbit skeletal muscle (enzyme, UniProt P00511 1-780, looked up, Phosphofructokinase from rabbit skeletal muscle (muscle-type ATP-dependent 6-phosphofructokinase); no identifier or residues printed; The number of copies therefore depends on the condition; also called purified PFK; PFK1; source: purified from rabbit skeletal muscle) MTHEEHHAARTLGVGKAIAVLTSGGDAQGMNAAVRAVVRVGIFTGARVFFVHEGYQGLVDGGDHIREATWESVSMMLQLGGTVIGSARCKDFREREGRLRAAHNLVKRGITNLCVIGGDGSLTGADTFRSEWSDLLSDLQKAGKITAEEATRSSYLNIVGLVGSIDNDFCGTDMTIGTDSALHRITEIVDAITTTAQSHQRTFVLEVMGRHCGYLALVTSLSCGADWVFIPECPPDDNWEDHLCRRLSETRTRGSRLNIIIVAEGAIDRNGKPITSEGVKDLVVRRLGYDTRVTVLGHVQRGGTPSAFDRILGSRMGVEAVMALLEGTPDTPACVVSLSGNQAVRLPLMECVQVTKDVTKAMDEKRFDEAMKLRGRSFMNNWEVYKLLAHIRPPAPKSGSYTVAVMNVGAPAAGMNAAVRSTVRIGLIQGNRVLVVHDGFEGPAKGQIEEAGWSYVGGWTGQGGSKLGSKRTLPKKSFEQISANITKFNIQGLVIIGGFEAYTGGLELMEGRKQFDELCIPFVVIPATVSNNVPGSDFSVGADTALNTICTTCDRIKQSAAGTKRRVFIIETMGGYCGYLATMAGLAAGADAAYIFEEPFTIRDLQANVEHLVQKMKTTVKRGLVLRNEKCNENYTTDFIFNLYSEEGKGIFDSRKNVLGHMQQGGSPTPFDRNFATKMGAKAMNWMAGKIKESYRNGRIFANTPDSGCVLGMRKRALVFQPVTELQNQTDFEHRIPKEQWWLKLRPILKILAKYEIDLDTSEHAHLEHISRKRSGEATV |  | 2
